Results from patent publication US10662218B2, “Analogs of celastrol” (ERX Pharmaceuticals, Inc., priority 2015, dated 2020).
Values after ≈ are worked out from the molar mass of the structure shown.

Experiments:
[1] = Compound solubility in PBS (pH 7.4), LC-MS/MS
Description: • Test concentration: 100 μM (1% of DMSO) • Test systems: PBS (pH 7.4) • Incubation condition: shaken (1000 rpm) for 1 h at room temperature • Sample size: Duplicates (n=2) • Bioanalytical method: LC-MS/MS

[2] = test system: C57BL/6 Diet Induced Obese (DIO) mice; assay: Oral (P.O.) administration study in DIO mice: in vivo activity, body weights; design: species or system mouse; conditions: 2 mg/kg oral gavage once daily for 10 days, compared with controls
Text: The purpose of this study was to assess test articles in the Diet Induced Obese (DIO) mouse.
Male C57BL/6 Diet Induced Obese (DIO) mice were received from Taconic. Animals were acclimated to housing conditions for at least 1 week prior to vehicle acclimation dosing. Animals were acclimated to oral gavage dosing with vehicle once daily for Days 11 through 14 of the predose phase.
At initiation of dosing, animals were 21 to 22 weeks old, and their body weights ranged from 29.8 to 40.1 g.
Dose formulations were administered by oral gavage once daily for 10 days at a dose volume of 2 mL/kg. Doses were based on the most recently recorded scheduled body weight.
Body weights were recorded daily on Days 11 through 14 of the predose phase. Body weights were collected for all animals daily during the dosing phase prior to dosing.
Descriptive statistics (n, mean, standard error of the mean, standard deviation) were completed. Additionally, one-way analysis of variance followed by Dunnett's post-hoc test were performed on body weight (cumulative body weight change), glucose (glucose percent change), and food consumption (cumulative food consumption). Area under the curve (for body weight, cumulative body weight change, daily body weight change, and food consumption) was computed for treatment groups. An appropriate comparison test, such as one-way analysis of variance and Dunnett's, was performed on the group means for the area under the curve computations. Any additional statistical analysis and interpretation of the results were the responsibility of the sponsor.

[3] = PBS (pH 7.4), pH 7.4, aqueous buffer, kinetic from dmso stock, Solubility (μM) Mean, Table 6-B, test concentration 100 μM (1% of DMSO), shaken (1000 rpm) 1 h at room temperature, n = 2
[4] = PBS (pH 7.4), pH 7.4, aqueous buffer, kinetic from dmso stock, Solubility (μM), Table 6-D
[5] = pH 7.4, aqueous buffer, kinetic from dmso stock, Solubility (μM) Mean, Table 6-B; PBS (pH 7.4), test concentration 100 μM (1% of DMSO), shaken (1000 rpm) 1 h at room temperature, n = 2
[6] = pH 7.4, aqueous buffer, kinetic from dmso stock, Solubility (μM), Table 6-D; PBS (pH 7.4)

solubility at 1 h [1, 3] | solubility at 1 h [1, 4] | SMILES | solubility [1, 5] | solubility [1, 6] | also measured
6.44 µM (≈ 3.93 µg/mL) | 6.43 µM (≈ 3.93 µg/mL) | CC(=O)Oc1cc2c(c(C)c1OC(C)=O)C(SC(C)=O)C=C1[C@@]2(C)CC[C@@]2(C)[C@@H]3C[C@](C)(C(=O)O)CC[C@]3(C)CC[C@]12C (stereo partly shown) [ERX1076] | – | – | –
1.04 µM (≈ 0.509 µg/mL) | 1.03 µM (≈ 0.507 µg/mL) | C=CCOC1=C(C)C2=CC=C3[C@@](C)(CC[C@@]4(C)[C@@H]5C[C@](C)(C(N)=O)CC[C@]5(C)CC[C@]34C)C2=CC1=O [ERX1124] | – | – | –
0.91 µM (≈ 0.472 µg/mL) | 0.914 µM (≈ 0.474 µg/mL) | CC1=C(O)C(=O)C=C2C1=CC=C1[C@@]2(C)CC[C@@]2(C)[C@@H]3C[C@](C)(CN4CCN(C)CC4)CC[C@]3(C)CC[C@]12C [ERX1117] | – | – | –

More lines, now with the values behind:

SMILES | solubility at 1 h [1, 3] | solubility at 1 h [1, 4] | solubility [1, 5] | solubility [1, 6] | also measured
CCCOC1=C(C)C2=CC=C3[C@@](C)(CC[C@@]4(C)[C@@H]5C[C@](C)(C(N)=O)CC[C@]5(C)CC[C@]34C)C2=CC1=O [ERX1121] | 1.55 µM (≈ 0.762 µg/mL) | 1.55 µM (≈ 0.762 µg/mL) | – | – | –
CC1=C(O)C(=O)C=C2C1=CC=C1[C@@]2(C)CC[C@@]2(C)[C@@H]3C[C@](C)(C(=O)N4CC(O)C4)CC[C@]3(C)CC[C@]12C [ERX1020] | – | – | 0.54 µM (≈ 0.273 µg/mL) | 0.54 µM (≈ 0.273 µg/mL) | –
CC1=C(O)C(=O)C=C2C1=CC=C1[C@@]2(C)CC[C@@]2(C)[C@@H]3C[C@](C)(C(=O)N(C)C)CC[C@]3(C)CC[C@]12C [ERX1008] | – | – | 0.08 µM (≈ 0.0382 µg/mL) | 0.0841 µM (≈ 0.0402 µg/mL) | cumulative body weight change [2]: statistically significant decreases
CC(=O)N[C@]1(C)CC[C@]2(C)CC[C@]3(C)C4=CC(SC(=O)c5ccccc5)c5c(cc(OC(C)=O)c(OC(C)=O)c5C)[C@]4(C)CC[C@@]3(C)[C@@H]2C1 (stereo partly shown) [ERX1173] | – | – | – | – | solubility at 1 h ([1]; PBS (pH 7.4), pH 7.4, aqueous buffer, kinetic from dmso stock, Solubility (μM) Mean, Table 6-C, test concentration 100 μM (1% of DMSO), shaken (1000 rpm) 1 h at room temperature, n = 2): 1.74 µM (≈ 1.19 µg/mL)
CC1=C(O)C(=O)C=C2C1=CC=C1[C@@]2(C)CC[C@@]2(C)[C@@H]3C[C@](C)(CO)CC[C@]3(C)CC[C@]12C [ERX1010] | – | – | 0.64 µM (≈ 0.279 µg/mL) | 0.644 µM (≈ 0.281 µg/mL) | –
CC(C)NCC(O)COc1cccc2ccccc12 (stereo not shown) [Propranolol] | – | – | – | – | solubility at 1 h [1, 5]: 97.5 µM (≈ 25.3 µg/mL); solubility at 1 h ([1]; pH 7.4, aqueous buffer, kinetic from dmso stock, Solubility (μM) Mean, Table 6-C; PBS (pH 7.4), test concentration 100 μM (1% of DMSO), shaken (1000 rpm) 1 h at room temperature, n = 2): > 100 µM; solubility at 1 h [1, 6]: 97.5 µM (≈ 25.3 µg/mL)
